Source: US10633386B2, “BET protein degraders” (THE REGENTS OF THE UNIVERSITY OF MICHIGAN, priority 2016, dated 2020)
pIC50: −log10 of the molar value.

Legend:
MOLM-13 = assay: Cell growth inhibition (CellTiter-Glo), MOLM-13; assay type: cell-based; settings: MOLM-13 cells, 4 days
Protocol: (§1) Cell growth inhibitory activity of representative BET bromodomain degraders was determined using CellTiter-Glo® Luminescent Cell Viability Assay. Cells were seeded in 384-well white opaque cell culture plates at a density of 2,000 cells/well with serially diluted compounds and incubated at 37° C. in an atmosphere of 95% air and 5% CO2 for 4 days. Cell viability was determined using the CellTiter-Glo® Luminescent Cell Viability Assay Kit (Promega, Madison, Wis.) according to the manufacture's instruction. Briefly, a volume of CellTiter-Glo® Reagent equal to the volume of cell culture medium was added to each well, and then the plates were incubated at room temperature for 10-20 minutes. The luminescent signal was measured using a Tecan Infinite M1000 multimode microplate reader (Tecan, Morrisville, N.C.). The half maximal inhibitory concentration (IC50) was calculated using the GraphPad Prism 5 software (GraphPad Software, La Jolla, Calif.).

MDA-MB-231 = assay: Cell growth inhibition (CellTiter-Glo), MDA-MB-231; assay type: cell-based, human; settings: MDA-MB-231 cells, 4 days
Protocol: as §1

Row | pIC50 (MOLM-13; Homo sapiens, MOLM-13, 96 h) | pIC50 (MDA-MB-231; Homo sapiens, MDA-MB-231, 96 h) | pIC50 (MOLM-13) | pIC50 (MDA-MB-231) | SMILES
1 | 8.47 | 7.61 | – | – | CCn1nc(C2CC2)cc1Nc1nc(C(=O)NCCOCCCc2cccc3c2C(=O)N(C2CCC(=O)NC2=O)C3=O)nc2[nH]c3cc(-c4c(C)noc4C)c(OC)cc3c12 (stereo not shown) [Cpd. No. 62]
2 | 6.94 | 6.48 | – | – | CCn1nc(C2CC2)cc1Nc1nc(CNCCCCNc2cccc3c2C(=O)N(C2CCC(=O)NC2=O)C3=O)nc2[nH]c3cc(-c4c(C)noc4C)c(OC)cc3c12 (stereo not shown) [compound 17]
3 | 8.54 | 7.79 | – | – | CCn1nc(C2CC2)cc1Nc1nc(C(=O)NCCCOCCOCCNc2cccc3c2CN(C2CCC(=O)NC2=O)C3=O)nc2[nH]c3cc(-c4c(C)noc4C)c(OC)cc3c12 (stereo not shown) [compound 69]
4 | 7.38 | 6.64 | – | – | CCn1nc(C2CC2)cc1Nc1nc(C(=O)NCCOCCOCCC(=O)Nc2cccc3c2CN(C2CCC(=O)NC2=O)C3=O)nc2[nH]c3cc(-c4c(C)noc4C)c(OC)cc3c12 (stereo not shown) [Cpd. No. 63]
5 | 9.05 | 8.49 | – | – | CCn1nc(C2CC2)cc1Nc1nc(CNCCCOCCOCCOCCCNc2cccc3c2C(=O)N(C2CCC(=O)NC2=O)C3=O)nc2[nH]c3cc(-c4c(C)noc4C)c(OC)cc3c12 (stereo not shown) [compound 20]
6 | 8.20 | 7.24 | – | – | CCn1nc(C2CC2)cc1Nc1nc(C(=O)NCCCNc2cccc3c2C(=O)N(C2CCC(=O)NC2=O)C3=O)nc2[nH]c3cc(-c4c(C)noc4C)c(OC)cc3c12 (stereo not shown) [Cpd. No. 8]
7 | 7.92 | 7.13 | – | – | CCn1nc(C2CC2)cc1Nc1nc(C(=O)NCCOCCOCCOCCNc2cccc3c2CN(C2CCC(=O)NC2=O)C3=O)nc2[nH]c3cc(-c4c(C)noc4C)c(OC)cc3c12 (stereo not shown) [compound 24]
8 | 8.54 | 8.27 | – | – | CCn1nc(C2CC2)cc1Nc1nc(COCCCCNc2cccc3c2C(=O)N(C2CCC(=O)NC2=O)C3=O)nc2[nH]c3cc(-c4c(C)noc4C)c(OC)cc3c12 (stereo not shown) [compound 18]
9 | 7.99 | 6.89 | – | – | CCn1nc(C2CC2)cc1Nc1nc(C(=O)NCCOCCOCCOCCOCCOCCOCCOCCNc2cccc3c2C(=O)N(C2CCC(=O)NC2=O)C3=O)nc2[nH]c3cc(-c4c(C)noc4C)c(OC)cc3c12 (stereo not shown) [compound 16]
10 | 9.05 | 8.32 | – | – | CCn1nc(C2CC2)cc1Nc1nc(C(=O)NCCCCCNc2cccc3c2C(=O)N(C2CCC(=O)NC2=O)C3=O)nc2[nH]c3cc(-c4c(C)noc4C)c(OC)cc3c12 (stereo not shown) [compound 10]
11 | 7.74 | 7.02 | – | – | CCn1nc(C2CC2)cc1Nc1nc(C(=O)NCCCOCCOCCOCCCNC(=O)CNc2cccc3c2C(=O)N(C2CCC(=O)NC2=O)C3=O)nc2[nH]c3cc(-c4c(C)noc4C)c(OC)cc3c12 (stereo not shown) [Cpd. No. 3]
12 | 7.63 | 7.01 | – | – | CCn1nc(C2CC2)cc1Nc1nc(C(=O)NCCOCCOCCOCCC(=O)Nc2cccc3c2CN(C2CCC(=O)NC2=O)C3=O)nc2[nH]c3cc(-c4c(C)noc4C)c(OC)cc3c12 (stereo not shown) [Cpd. No. 64]
13 | 7.33 | 6.56 | – | – | CCn1nc(C2CC2)cc1Nc1nc(C(=O)NCCCCNc2cccc3c2CN(C2CCC(=O)NC2=O)C3=O)nc2[nH]c3cc(-c4c(C)noc4C)c(OC)cc3c12 (stereo not shown) [compound 66]
14 | 7.75 | 6.96 | – | – | CCn1nc(C2CC2)cc1Nc1nc(C(=O)NCCOCCNc2cccc3c2C(=O)N(C2CCC(=O)NC2=O)C3=O)nc2[nH]c3cc(-c4c(C)noc4C)c(OC)cc3c12 (stereo not shown) [Cpd. No. 12]

The remaining lines, values behind:

Row | SMILES | pIC50 (MOLM-13; Homo sapiens, MOLM-13, 96 h) | pIC50 (MDA-MB-231; Homo sapiens, MDA-MB-231, 96 h) | pIC50 (MOLM-13) | pIC50 (MDA-MB-231)
15 | CCn1nc(C2CC2)cc1Nc1nc(C(=O)NCCCCCc2cccc3c2C(=O)N(C2CCC(=O)NC2=O)C3=O)nc2[nH]c3cc(-c4c(C)noc4C)c(OC)cc3c12 (stereo not shown) [Cpd. No. 60] | 8.92 | 7.95 | – | –
16 | CCn1nc(C2CC2)cc1Nc1nc(C(=O)NCCOCCOCCOCCOc2cccc3c2C(=O)N(C2CCC(=O)NC2=O)C3=O)nc2[nH]c3cc(-c4c(C)noc4C)c(OC)cc3c12 (stereo not shown) [Cpd. No. 5] | 8.16 | 7.30 | – | –
17 | CCn1nc(C2CC2)cc1Nc1nc(C(=O)NCCOCCCc2cccc3c2CN(C2CCC(=O)NC2=O)C3=O)nc2[nH]c3cc(-c4c(C)noc4C)c(OC)cc3c12 (stereo not shown) [Cpd. No. 59] | 9.19 | 7.61 | – | –
18 | CCn1nc(C2CC2)cc1Nc1nc(C(=O)NCCNc2cccc3c2C(=O)N(C2CCC(=O)NC2=O)C3=O)nc2[nH]c3cc(-c4c(C)noc4C)c(OC)cc3c12 (stereo not shown) [Cpd. No. 7] | 7.19 | 6.34 | – | –
19 | CCn1nc(C2CC2)cc1Nc1nc(C(=O)NCCCOCCCCOCCCNc2cccc3c2C(=O)N(C2CCC(=O)NC2=O)C3=O)nc2[nH]c3cc(-c4c(C)noc4C)c(OC)cc3c12 (stereo not shown) [compound 15] | 9.15 | 8.77 | – | –
20 | CCn1nc(C2CC2)cc1Nc1nc(C(=O)NCCCOCCOCCOCC#Cc2cccc3c2CN(C2CCC(=O)NC2=O)C3=O)nc2[nH]c3cc(-c4c(C)noc4C)c(OC)cc3c12 (stereo not shown) [compound 72] | 8.92 | 8.38 | – | –
21 | CCn1nc(C2CC2)cc1Nc1nc(C(=O)NCCOCCOCCNc2cccc3c2C(=O)N(C2CCC(=O)NC2=O)C3=O)nc2[nH]c3cc(-c4c(C)noc4C)c(OC)cc3c12 (stereo not shown) [Cpd. No. 13] | – | 6.57 | 8.10 | –
22 | CCn1nc(C2CC2)cc1Nc1nc(C(=O)NCCOCCOCCOCCOCCCc2cccc3c2CN(C2CCC(=O)NC2=O)C3=O)nc2[nH]c3cc(-c4c(C)noc4C)c(OC)cc3c12 (stereo not shown) [compound 70] | 8.07 | 7.39 | – | –
23 | CCn1nc(C2CC2)cc1Nc1nc(C(=O)NCCCOCCOCCOCCCNc2cccc3c2CN(C2CCC(=O)NC2=O)C3=O)nc2[nH]c3cc(-c4c(C)noc4C)c(OC)cc3c12 (stereo not shown) [compound 67] | 9.15 | 8.70 | – | –
24 | CCn1nc(C2CC2)cc1Nc1nc(C(=O)NCCOCCNc2cccc3c2CN(C2CCC(=O)NC2=O)C3=O)nc2[nH]c3cc(-c4c(C)noc4C)c(OC)cc3c12 (stereo not shown) [compound 22] | 7.91 | 7.20 | – | –
25 | CCn1nc(C2CC2)cc1Nc1nc(CNCCCOCCCCOCCCNc2cccc3c2C(=O)N(C2CCC(=O)NC2=O)C3=O)nc2[nH]c3cc(-c4c(C)noc4C)c(OC)cc3c12 (stereo not shown) [compound 21] | 7.07 | 6.27 | – | –
26 | CCn1nc(C2CC2)cc1Nc1nc(C(=O)NCCOCCOCCOCCNc2cccc3c2C(=O)N(C2CCC(=O)NC2=O)C3=O)nc2[nH]c3cc(-c4c(C)noc4C)c(OC)cc3c12 (stereo not shown) [compound 14] | 8.92 | 7.48 | – | –
27 | CCn1nc(C2CC2)cc1Nc1nc(C(=O)NCCOCCOCCOCCCc2cccc3c2C(=O)N(C2CCC(=O)NC2=O)C3=O)nc2[nH]c3cc(-c4c(C)noc4C)c(OC)cc3c12 (stereo not shown) [Cpd. No. 61] | 8.82 | 7.16 | – | –
28 | CCn1nc(C2CC2)cc1Nc1nc(C(=O)NCCCCNC(=O)COc2cccc3c2C(=O)N(C2CCC(=O)NC2=O)C3=O)nc2[nH]c3cc(-c4c(C)noc4C)c(OC)cc3c12 (stereo not shown) [Cpd. No. 1] | 7.91 | 7.31 | – | –
29 | CCn1nc(C2CC2)cc1Nc1nc(C(=O)NCCOCCOCCNc2cccc3c2CN(C2CCC(=O)NC2=O)C3=O)nc2[nH]c3cc(-c4c(C)noc4C)c(OC)cc3c12 (stereo not shown) [compound 23] | 7.78 | 7.08 | – | –
30 | CCn1nc(C2CC2)cc1Nc1nc(CNCCCCNc2cccc3c2CN(C2CCC(=O)NC2=O)C3=O)nc2[nH]c3cc(-c4c(C)noc4C)c(OC)cc3c12 (stereo not shown) [compound 19] | 6.42 | 5.85 | – | –
31 | CCn1nc(C2CC2)cc1Nc1nc(C(=O)NCCCCCCNc2cccc3c2C(=O)N(C2CCC(=O)NC2=O)C3=O)nc2[nH]c3cc(-c4c(C)noc4C)c(OC)cc3c12 (stereo not shown) [compound 11] | 8.80 | 8.10 | – | –
32 | CCn1nc(C2CC2)cc1Nc1nc(C(=O)NCCCOCCOCCOCCNc2cccc3c2CN(C2CCC(=O)NC2=O)C3=O)nc2[nH]c3cc(-c4c(C)noc4C)c(OC)cc3c12 (stereo not shown) [compound 68] | 8.92 | 8.39 | – | –
33 | CCn1nc(C2CC2)cc1Nc1nc(C(=O)NCCOCCOCCNc2cccc3c2C(=O)N(C2CCC(=O)NC2=O)C3=O)nc2[nH]c3cc(-c4c(C)noc4C)c(OC)cc3c12 (stereo not shown) [compound 65] | – | – | 7.33 | 6.36
34 | CCn1nc(C2CC2)cc1Nc1nc(C(=O)NCCCOCCOCCOCCCNC(=O)COc2cccc3c2C(=O)N(C2CCC(=O)NC2=O)C3=O)nc2[nH]c3cc(-c4c(C)noc4C)c(OC)cc3c12 (stereo not shown) [Cpd. No. 2] | 7.79 | 7.12 | – | –
35 | CCn1nc(C2CC2)cc1Nc1nc(C(=O)NCCOCCOCCOCCOCCNc2cccc3c2CN(C2CCC(=O)NC2=O)C3=O)nc2[nH]c3cc(-c4c(C)noc4C)c(OC)cc3c12 (stereo not shown) [compound 25] | 8.46 | 7.60 | – | –
